Measured values: PubChem BioAssay AID2060506 (Molecular Pharmacology Branch, DTP, NCI, 2025)

Tested on: 598228-144-R-J1-PDC complex spheroid viability
Experiment: Anticancer human tumor 598228-144-R-J1-PDC patient-derived serous endometrial adenocarcinoma cell line growth inhibition [GQUAD]
Settings: for IC50: curve of first compound; for viability, T/C: stronger effect = lower value
How it was run: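 Viability of tumor cells grown as complex spheroids with endothelial and stromal cells, exposed to drug combinations. Top concentration at or near clinical Cmax (else 10 microM), diluted in half-log increments.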

[1] = second compound 0.0316 µM, first compound 0.0316 µM
[2] = second compound 0.0316 µM, first compound 0.1 µM
[3] = second compound 0.0316 µM, first compound 0.316 µM
[4] = second compound 0.0316 µM, first compound 1 µM
[5] = second compound 0.0316 µM, first compound 3.16 µM
[6] = second compound 0.0316 µM, first compound 10 µM
[7] = second compound 0.1 µM, first compound 0.0316 µM
[8] = second compound 0.1 µM, first compound 0.1 µM
[9] = second compound 0.1 µM, first compound 0.316 µM
[10] = second compound 0.1 µM, first compound 1 µM
[11] = second compound 0.1 µM, first compound 3.16 µM
[12] = second compound 0.1 µM, first compound 10 µM
[13] = second compound 0.316 µM, first compound 0.0316 µM
[14] = second compound 0.316 µM, first compound 0.1 µM
[15] = second compound 0.316 µM, first compound 0.316 µM
[16] = second compound 0.316 µM, first compound 1 µM
[17] = second compound 0.316 µM, first compound 3.16 µM
[18] = second compound 0.316 µM, first compound 10 µM
[19] = second compound 1 µM, first compound 0.0316 µM
[20] = second compound 1 µM, first compound 0.1 µM
[21] = second compound 1 µM, first compound 0.316 µM
[22] = second compound 1 µM, first compound 1 µM
[23] = second compound 1 µM, first compound 3.16 µM
[24] = second compound 1 µM, first compound 10 µM
[25] = second compound 3.16 µM, first compound 0.0316 µM
[26] = second compound 3.16 µM, first compound 0.1 µM
[27] = second compound 3.16 µM, first compound 0.316 µM
[28] = second compound 3.16 µM, first compound 1 µM
[29] = second compound 3.16 µM, first compound 3.16 µM
[30] = second compound 3.16 µM, first compound 10 µM
[31] = second compound 10 µM, first compound 0.0316 µM
[32] = second compound 10 µM, first compound 0.1 µM
[33] = second compound 10 µM, first compound 0.316 µM
[34] = second compound 10 µM, first compound 1 µM
[35] = second compound 10 µM, first compound 3.16 µM
[36] = second compound 10 µM, first compound 10 µM
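Further: spheroids exposed to the agents for one week before reading.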
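Wherever viability, T/C is given: percent of vehicle DMSO control viability so 100% = untreated growth.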

## CC1COCCN1c1cc(-c2ccnn2C)c2ccnc(-c3ccn[nH]3)c2n1 (stereo not given) + CN(C)c1ccc(Nc2c3ccc(NC(=O)CCN4CCCC4)cc3nc3cc(NC(=O)CCN4CCCC4)ccc23)cc1
Second compound 0.0316 µM
  IC50: 0.0879 µM
Second compound 0.1 µM
  IC50: 0.0882 µM
Second compound 0.316 µM
  IC50: 0.0935 µM
Second compound 1 µM
  IC50: 0.721 µM
Second compound 3.16 µM
  IC50: 0.114 µM
Second compound 10 µM
  IC50: 0.0581 µM
[1]
  viability, T/C: 86%
[2]
  viability, T/C: 45.6%
[3]
  viability, T/C: 40.3%
[4]
  viability, T/C: 43.3%
[5]
  viability, T/C: 49.2%
[6]
  viability, T/C: 45.2%
[7]
  viability, T/C: 79.7%
[8]
  viability, T/C: 46.1%
[9]
  viability, T/C: 45.5%
[10]
  viability, T/C: 40.5%
[11]
  viability, T/C: 42.4%
[12]
  viability, T/C: 43.5%
[13]
  viability, T/C: 76.3%
[14]
  viability, T/C: 51.3%
[15]
  viability, T/C: 32.7%
[16]
  viability, T/C: 43.9%
[17]
  viability, T/C: 45.5%
[18]
  viability, T/C: 34.6%
[19]
  viability, T/C: 70.6%
[20]
  viability, T/C: 63.8%
[21]
  viability, T/C: 50.5%
[22]
  viability, T/C: 50%
[23]
  viability, T/C: 45.7%
[24]
  viability, T/C: 38.9%
[25]
  viability, T/C: 74.6%
[26]
  viability, T/C: 49.6%
[27]
  viability, T/C: 40%
[28]
  viability, T/C: 40.6%
[29]
  viability, T/C: 43.4%
[30]
  viability, T/C: 25.9%
[31]
  viability, T/C: 73.5%
[32]
  viability, T/C: 29.5%
[33]
  viability, T/C: 20.5%
[34]
  viability, T/C: 29.7%
[35]
  viability, T/C: 27.6%
[36]
  viability, T/C: 14.9%

## COc1cc(C2c3cc4c(cc3C(OC3OC5COC(C)OC5C(O)C3O)C3COC(=O)C23)OCO4)cc(OC)c1O (stereo not given) + Cc1[nH]c2ccc(F)cc2c1-c1nc2c3cccnc3c3ncccc3c2[nH]1
Second compound 0.0316 µM
  IC50: > 10 µM
Second compound 0.1 µM
  IC50: > 10 µM
Second compound 0.316 µM
  IC50: > 10 µM
Second compound 1 µM
  IC50: 4.15 µM
Second compound 3.16 µM
  IC50: < 0.0316 µM
Second compound 10 µM
  IC50: 4.49 µM
[1]
  viability, T/C: 91.8%
[2]
  viability, T/C: 85.6%
[3]
  viability, T/C: 87%
[4]
  viability, T/C: 71%
[5]
  viability, T/C: 60.4%
[6]
  viability, T/C: 51.3%
[7]
  viability, T/C: 92.9%
[8]
  viability, T/C: 77.5%
[9]
  viability, T/C: 66.2%
[10]
  viability, T/C: 71.8%
[11]
  viability, T/C: 68.7%
[12]
  viability, T/C: 48.6%
[13]
  viability, T/C: 119%
[14]
  viability, T/C: 72%
[15]
  viability, T/C: 76.7%
[16]
  viability, T/C: 66%
[17]
  viability, T/C: 66%
[18]
  viability, T/C: 47.6%
[19]
  viability, T/C: 62.6%
[20]
  viability, T/C: 59.5%
[21]
  viability, T/C: 58.5%
[22]
  viability, T/C: 44.7%
[23]
  viability, T/C: 62%
[24]
  viability, T/C: 43.1%
[25]
  viability, T/C: 43.2%
[26]
  viability, T/C: 42%
[27]
  viability, T/C: 39.3%
[28]
  viability, T/C: 46.2%
[29]
  viability, T/C: 38.2%
[30]
  viability, T/C: 43.5%
[31]
  viability, T/C: 54.6%
[32]
  viability, T/C: 62.9%
[33]
  viability, T/C: 55.7%
[34]
  viability, T/C: 47.9%
[35]
  viability, T/C: 61.9%
[36]
  viability, T/C: 34.9%

## Cc1cccc(N(C)C(=O)C2C(O)CCN2c2nc(C)cc(C(F)(F)F)c2C#N)c1 (stereo not given) + CN(C)c1ccc(Nc2c3ccc(NC(=O)CCN4CCCC4)cc3nc3cc(NC(=O)CCN4CCCC4)ccc23)cc1
Second compound 0.0316 µM
  IC50: > 10 µM
Second compound 0.1 µM
  IC50: > 10 µM
Second compound 0.316 µM
  IC50: > 10 µM
Second compound 1 µM
  IC50: > 10 µM
Second compound 3.16 µM
  IC50: > 10 µM
Second compound 10 µM
  IC50: 3.95 µM
[1]
  viability, T/C: 114%
[2]
  viability, T/C: 96.9%
[3]
  viability, T/C: 98.3%
[4]
  viability, T/C: 105%
[5]
  viability, T/C: 91.5%
[6]
  viability, T/C: 103%
[7]
  viability, T/C: 103%
[8]
  viability, T/C: 107%
[9]
  viability, T/C: 107%
[10]
  viability, T/C: 108%
[11]
  viability, T/C: 103%
[12]
  viability, T/C: 84.9%
[13]
  viability, T/C: 94%
[14]
  viability, T/C: 124%
[15]
  viability, T/C: 100%
[16]
  viability, T/C: 125%
[17]
  viability, T/C: 118%
[18]
  viability, T/C: 113%
[19]
  viability, T/C: 98.5%
[20]
  viability, T/C: 114%
[21]
  viability, T/C: 106%
[22]
  viability, T/C: 101%
[23]
  viability, T/C: 106%
[24]
  viability, T/C: 111%
[25]
  viability, T/C: 114%
[26]
  viability, T/C: 106%
[27]
  viability, T/C: 106%
[28]
  viability, T/C: 95.2%
[29]
  viability, T/C: 108%
[30]
  viability, T/C: 86.4%
[31]
  viability, T/C: 96.6%
[32]
  viability, T/C: 78.7%
[33]
  viability, T/C: 107%
[34]
  viability, T/C: 86.5%
[35]
  viability, T/C: 55.2%
[36]
  viability, T/C: 29.1%

## O=c1[nH]cc(F)c(=O)[nH]1 + Cc1[nH]c2ccc(F)cc2c1-c1nc2c3cccnc3c3ncccc3c2[nH]1
Second compound 0.0316 µM
  IC50: > 10 µM
Second compound 0.1 µM
  IC50: > 10 µM
Second compound 0.316 µM
  IC50: > 10 µM
Second compound 1 µM
  IC50: > 10 µM
Second compound 3.16 µM
  IC50: < 0.0316 µM
Second compound 10 µM
  IC50: > 10 µM
[1]
  viability, T/C: 106%
[2]
  viability, T/C: 112%
[3]
  viability, T/C: 90.2%
[4]
  viability, T/C: 94.3%
[5]
  viability, T/C: 89.6%
[6]
  viability, T/C: 81.4%
[7]
  viability, T/C: 97.4%
[8]
  viability, T/C: 102%
[9]
  viability, T/C: 85.1%
[10]
  viability, T/C: 109%
[11]
  viability, T/C: 91.8%
[12]
  viability, T/C: 93.9%
[13]
  viability, T/C: 98.6%
[14]
  viability, T/C: 99.9%
[15]
  viability, T/C: 74.9%
[16]
  viability, T/C: 85.8%
[17]
  viability, T/C: 70.4%
[18]
  viability, T/C: 67.2%
[19]
  viability, T/C: 57.5%
[20]
  viability, T/C: 66.9%
[21]
  viability, T/C: 58%
[22]
  viability, T/C: 55.5%
[23]
  viability, T/C: 54.5%
[24]
  viability, T/C: 60.7%
[25]
  viability, T/C: 38.1%
[26]
  viability, T/C: 39.2%
[27]
  viability, T/C: 49.5%
[28]
  viability, T/C: 48.1%
[29]
  viability, T/C: 48.8%
[30]
  viability, T/C: 47%
[31]
  viability, T/C: 66.8%
[32]
  viability, T/C: 62.6%
[33]
  viability, T/C: 63.8%
[34]
  viability, T/C: 60.8%
[35]
  viability, T/C: 57.4%
[36]
  viability, T/C: 54.2%

## C#Cc1c(F)ccc2cc(O)cc(-c3ncc4c(N5CC6CCC(C5)N6)nc(OCC56CCCN5CC(F)C6)nc4c3F)c12 (stereo not given) + Cc1[nH]c2ccc(F)cc2c1-c1nc2c3cccnc3c3ncccc3c2[nH]1
Second compound 0.0316 µM
  IC50: > 10 µM
Second compound 0.1 µM
  IC50: > 10 µM
Second compound 0.316 µM
  IC50: > 10 µM
Second compound 1 µM
  IC50: > 10 µM
Second compound 3.16 µM
  IC50: < 0.0316 µM
Second compound 10 µM
  IC50: > 10 µM
[1]
  viability, T/C: 124%
[2]
  viability, T/C: 88.7%
[3]
  viability, T/C: 120%
[4]
  viability, T/C: 100%
[5]
  viability, T/C: 114%
[6]
  viability, T/C: 111%
[7]
  viability, T/C: 121%
[8]
  viability, T/C: 126%
[9]
  viability, T/C: 97.2%
[10]
  viability, T/C: 107%
[11]
  viability, T/C: 143%
[12]
  viability, T/C: 130%
[13]
  viability, T/C: 93.7%
[14]
  viability, T/C: 87.4%
[15]
  viability, T/C: 87.9%
[16]
  viability, T/C: 102%
[17]
  viability, T/C: 115%
[18]
  viability, T/C: 98.7%
[19]
  viability, T/C: 74.7%
[20]
  viability, T/C: 59.1%
[21]
  viability, T/C: 54.3%
[22]
  viability, T/C: 59.7%
[23]
  viability, T/C: 71.9%
[24]
  viability, T/C: 62%
[25]
  viability, T/C: 37%
[26]
  viability, T/C: 51.8%
[27]
  viability, T/C: 44.6%
[28]
  viability, T/C: 40.2%
[29]
  viability, T/C: 44.2%
[30]
  viability, T/C: 31.9%
[31]
  viability, T/C: 69.2%
[32]
  viability, T/C: 62.3%
[33]
  viability, T/C: 64.3%
[34]
  viability, T/C: 58.3%
[35]
  viability, T/C: 60%
[36]
  viability, T/C: 52.8%
